Source: publication PMC12073725, “Luminal Sweet Sensing and Enteric Nervous System Participate in Regulation of Intestinal Glucose Transporter, GLUT2” (Nutrients, 2025)

Biological target: T1, pig T1R2–T1R3 (Sus scrofa, UniProt I1ZBR6+Q0EF93)
T1 construct: gene TAS1R2; heterodimer; full-length, custom-synthesised genes in modified pcDNA3/TO; N-terminal rat sst3 tags, C-terminal FLAG or HSV tags; HEK293PEAKrapid cells stably expressing Galpha15
T1 sequence (I1ZBR6 20-835): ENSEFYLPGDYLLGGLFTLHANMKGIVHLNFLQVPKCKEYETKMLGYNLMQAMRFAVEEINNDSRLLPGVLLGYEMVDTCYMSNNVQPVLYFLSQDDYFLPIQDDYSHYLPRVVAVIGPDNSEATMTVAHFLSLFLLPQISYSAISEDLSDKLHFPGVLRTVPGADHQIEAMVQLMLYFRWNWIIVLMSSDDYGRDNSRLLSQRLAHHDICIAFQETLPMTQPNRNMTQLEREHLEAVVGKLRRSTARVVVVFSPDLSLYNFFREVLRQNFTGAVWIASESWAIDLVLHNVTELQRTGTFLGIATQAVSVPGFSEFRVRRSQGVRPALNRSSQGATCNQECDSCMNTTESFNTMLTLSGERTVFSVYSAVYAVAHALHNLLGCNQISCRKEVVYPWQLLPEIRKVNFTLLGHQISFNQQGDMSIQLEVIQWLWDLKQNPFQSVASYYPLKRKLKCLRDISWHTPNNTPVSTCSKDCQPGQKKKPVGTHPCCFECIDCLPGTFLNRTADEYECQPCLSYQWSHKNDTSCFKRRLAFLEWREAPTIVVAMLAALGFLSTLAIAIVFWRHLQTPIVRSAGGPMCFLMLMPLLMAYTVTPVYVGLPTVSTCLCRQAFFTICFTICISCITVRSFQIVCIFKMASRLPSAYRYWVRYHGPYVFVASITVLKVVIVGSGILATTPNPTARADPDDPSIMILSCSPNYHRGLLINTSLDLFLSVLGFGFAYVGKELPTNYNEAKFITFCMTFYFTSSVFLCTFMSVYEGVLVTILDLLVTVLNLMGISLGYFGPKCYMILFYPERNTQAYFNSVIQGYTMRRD
T1 sequence (Q0EF93 19-855): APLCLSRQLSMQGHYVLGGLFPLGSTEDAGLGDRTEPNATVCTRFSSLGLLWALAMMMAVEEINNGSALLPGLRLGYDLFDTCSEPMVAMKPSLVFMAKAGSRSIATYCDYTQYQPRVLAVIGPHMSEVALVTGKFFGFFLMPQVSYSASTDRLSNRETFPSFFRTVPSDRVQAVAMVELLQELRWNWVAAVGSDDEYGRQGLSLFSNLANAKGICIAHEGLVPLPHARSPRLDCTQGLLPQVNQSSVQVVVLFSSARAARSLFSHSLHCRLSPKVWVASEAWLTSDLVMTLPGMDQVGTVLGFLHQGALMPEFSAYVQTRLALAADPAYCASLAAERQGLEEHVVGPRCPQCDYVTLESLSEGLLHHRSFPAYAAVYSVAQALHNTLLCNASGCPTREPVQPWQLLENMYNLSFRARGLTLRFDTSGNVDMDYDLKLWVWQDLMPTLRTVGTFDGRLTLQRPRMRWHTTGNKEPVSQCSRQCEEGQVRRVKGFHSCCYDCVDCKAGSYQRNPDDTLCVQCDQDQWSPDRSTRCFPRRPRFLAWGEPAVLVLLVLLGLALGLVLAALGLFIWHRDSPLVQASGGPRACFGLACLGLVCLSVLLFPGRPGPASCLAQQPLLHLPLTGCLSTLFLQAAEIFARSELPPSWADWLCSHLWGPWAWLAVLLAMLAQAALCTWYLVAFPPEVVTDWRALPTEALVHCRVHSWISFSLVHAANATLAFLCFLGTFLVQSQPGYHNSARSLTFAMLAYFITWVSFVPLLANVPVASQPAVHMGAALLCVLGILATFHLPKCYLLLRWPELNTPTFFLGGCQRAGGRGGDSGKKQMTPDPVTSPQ
Test: calcium mobilisation (Fluo-4), FlexStation3
Assay type: cell-based
Conditions: agonist; transfected HEK293PEAKrapid Galpha15 cells; mock-transfected control; curves in mg/mL

COc1cc(C=O)ccc1O [vanillin] was tested. Which EC50 did it give?
The EC50 was “activation in response to stimulation with either each sweetener component of SMF (A)”.
